Source: patent publication US4956171A, “Transdermal drug delivery using a dual permeation enhancer and method of performing the same” (Paco Pharmaceutical Services, Inc., priority 1989, dated 1990)
Counter-ions that a name gives are not always drawn. Like-named read-outs stand apart in the source and are kept apart here.

How the values were obtained:
[1] = optimized delivery system, constant rate over extended time periods
[2] = relative to morphine; background statement; cited from earlier work
[3] = cited from earlier work
[4] = on over dosage; cited from earlier work
[5] = In vitro release rate from the reservoir-type system into an infinite sink; settings: Example 1 reservoir-type system
[6] = In vitro flux of drug from saturated test solutions through human cadaver skin into an infinite sink, Franz diffusion cell; format: in vitro ADME
Method: For the evaluation of the degree of permeation enhancement, saturated test solutions of buprenorphine HCl in methyl laurate and/or sucrose cocoate were directly applied onto the epidermis side of human cadaver skin loaded between donor and receptor compartments of a standard Franz diffusion cell. The cell was kept at 35° C. during the diffusion study. […] The sucrose cocoate used for the test is commercially available in a 48 wt. % aqueous solution under the trade name Crodesta® SL-40, through Croda, Inc.

[7] = Example 1 reservoir-type system, 35° C.
[8] = Table 4, saturated in 48 wt. % sucrose cocoate aqueous solution
[9] = Table 4, saturated in 100 wt. % methyl laurate
[10] = Table 4, saturated in methyl laurate : 48 wt. % sucrose cocoate aqueous solution 3:7

CO[C@]12CC[C@@]3(C[C@@H]1[C@](C)(O)C(C)(C)C)[C@H]1Cc4ccc(O)c5c4[C@@]3(CCN1CC1CC1)[C@H]2O5 [buprenorphine]
steady state buprenorphine flux (Example 1 reservoir-type system, 3 wt. % buprenorphine HCl, 35° C.): about 5 μg/cm^2 /hr.
period over which flux stayed at a constant rate [7]: 72 h
time to steady state flux [7]: an hour
period over which steady state flux remained substantially constant (Example 3 laminated matrix-type system): 72 h
steady state buprenorphine flux (Example 3 laminated matrix-type system, 5.5 wt. % buprenorphine HCl): about 3.5 μg/cm^2 /hr.
in vitro human cadaver skin delivery rate (dual permeation enhancer sucrose cocoate + methyl laurate, full range): 1-10 μg/cm^2 /hr.
in vitro human cadaver skin delivery rate, preferable range (dual permeation enhancer sucrose cocoate + methyl laurate, preferably): 2-6 μg/cm^2 /hr.
skin irritation [1]: without uncomfortable skin irritation
analgesic activity, times more potent than morphine [2]: ~30 times
liver and intestinal metabolism ([3]; background statement): extensive liver and intestinal metabolism
bioavailability ([3]; due to extensive liver and intestinal metabolism): poor bioavailability
side effects [4]: severe side effects, particularly respiratory depression
release through the microporous membrane ([5]; infinite sink): rapid release
loaded amount depleted by release into an infinite sink ([5]; within the first 12 hours): more than 70 wt. %

C[C@]12CC[C@@H]3c4ccc(O)cc4CC[C@H]3[C@@H]1CC[C@@H]2O [Estradiol]
Flux, Solution B [6, 8]: 7.4 μg/cm^2 /day
Flux, Solution A [6, 9]: 4.3 μg/cm^2 /day

CC(C)Cc1ccc(C(C)C(=O)O)cc1 (stereo not drawn) [Ibuprofen]
Flux, Solution B [6, 8]: 547 μg/cm^2 /day
Flux, Solution A [6, 9]: 586 μg/cm^2 /day
Flux, Solution A:B(3:7) [6, 10]: 1897 μg/cm^2 /day

CO[C@]12CC[C@@]3(C[C@@H]1[C@](C)(O)C(C)(C)C)[C@H]1Cc4ccc(O)c5c4[C@@]3(CCN1CC1CC1)[C@H]2O5 [buprenorphine HCl]
skin flux, Solution B ([6]; Table 3, saturated in 48 wt. % sucrose cocoate aqueous solution, 35° C.): 100 μg/cm^2 /day
skin flux, Solution A ([6]; Table 3, saturated in 100 wt. % methyl laurate, 35° C.): 8 μg/cm^2 /day
skin flux, Solution A:B(1:9) ([6]; Table 3, saturated in methyl laurate : 48 wt. % sucrose cocoate aqueous solution 1:9, 35° C.): 226 μg/cm^2 /day
amount delivered (Example 1 reservoir-type system, during the 72 hour period): 360 μg/cm^2
loaded amount transdermally delivered (Example 1 reservoir-type system, over 72 hours, initial load about 1800 μg/cm^2): about 20 wt. %

C[C@]12C=CC(=O)C=C1CC[C@@H]1[C@@H]2[C@@H](O)C[C@@]2(C)[C@H]1CC[C@]2(O)C(=O)CO [Prednisolone]
Flux, Solution B [6, 8]: 8 μg/cm^2 /day
Flux, Solution A [6, 9]: 51 μg/cm^2 /day
Flux, Solution A:B(3:7) [6, 10]: 188 μg/cm^2 /day

O=C(O)Cc1ccccc1Nc1c(Cl)cccc1Cl [Dichlofenac Sodium]
Flux, Solution A [6]: 14 μg/cm^2 /day
Flux, Solution A:B(3:7) [6]: 215 μg/cm^2 /day
Flux, Solution B [6]: 146 μg/cm^2 /day

COC(=O)C1=C(C)NC(C)=C(C(=O)OC)C1c1ccccc1[N+](=O)[O-] [Nifedipine]
Flux, Solution B [6, 8]: 14 μg/cm^2 /day
Flux, Solution A [6, 9]: 15 μg/cm^2 /day
Flux, Solution A:B(3:7) [6, 10]: 23 μg/cm^2 /day
